Laboratory results published in patent US9539298B2, “Lissencephaly therapeutic agent” (OSAKA CITY UNIVERSITY, priority 2010, dated 2017).
Non-standard residues stand in square brackets, D forms with d. Residues, ends and D or L forms follow the SMILES beside them. Nle = CCCC[CH](N)C(=O)O

Key:
[1] = tested on: nerve cells from cerebellums of FVB mice; test: Analysis of toxicity of calpain inhibitors on cultured cerebellar nerve cells; type: cell-based, mouse; conditions: 16 hours, FIG. 24
Experimental: The cerebellums were removed from 4- to 5-day-old FVB mice (15 mice). In a Ca^2+-free Hank's Balanced Salt Solution (CF-HBSS; Ca^2+, Mg^2+-free Hank's Balanced Salt Solution (CMF-HBBS, Sigma) containing 5 mM magnesium chloride (MgCl2, Wako) and 4 mg/mL glucose (Wako)), the meninges were removed and cut into pieces. After the cerebellum fragments were washed with CF-HBSS, the fragments were allowed to stand for 20 minutes at 37° C. in CF-HBSS containing 0.025% trypsin (Invitrogen) and 6.25 μg/mL deoxyribonuclease (DNase, Sigma), and then centrifuged. The resulting tissues were washed with 10% HS/BME (DNase Medium; obtained by adding 5 mM MgCl2 and 25 μg/mL DNase to Basal Medium Eagle (BME, Invitrogen) containing 10% Horse Serum (HS, Invitrogen)) and centrifuged. DNase medium was added to the cells, and the cells were transferred to a 24-well plate (Nunc). The cells were kept still for 30 minutes at 37′C under an atmospheric environment of 5% CO2, thereby suspending the cells. The cell suspension was isolated, and then washed with 10% HS/BME. The suspension was transferred again to a 24-well plate to be cultured for 16 hours at 37° C. under an atmospheric environment of 5% CO2. The cells were collected to BME containing 1% Bovine Serum Albumin (BSA, Sigma) and 0.5% N2 supplement (Invitrogen), and the cell suspension was seeded on a 35 mm glass base dish (Iwaki) coated beforehand with poly-L-lysine (Sigma) and laminin (Sigma) in an amount of […]. The cells were cultured for 8 hours at 37° C. under an atmospheric environment of 5% CO2. The cultured nerve cells were used as test nerve cells.
A culture solution (10% HS/BME) containing SNJ-1945, E64d, or ALLN was prepared in the following manner. SNJ-1945 dissolved in dimethyl sulfoxide (Sigma, D-5879) was mixed with a culture solution so that the final concentration became 200 μM, and was kept still for an hour at 37° C., thereby completely dissolving SNJ-1945 in the culture medium. ALLN and E64d were also dissolved in culture media in the same manner, except that ALLN and E64d were added to the culture media to final concentrations of 50 μM and 100 μM, respectively. The culture media in which the components were dissolved were added to the test nerve cells prepared above in an amount of 2 ml/well, and the cells were cultured for 16 hours. As a control, the same culture was conducted using a culture medium containing the same amount of dimethyl sulfoxide (Sigma, D-5879). After culture, the cells were observed using an inverted microscope (TCS FP5S, Leica). A 20× objective lens was used. Images were taken using dedicated software (LAS AF, Leica) under the condition of 512×512 pixels.

[2] = target: T1, μ-calpain (derived from human red blood cells) (Homo sapiens, UniProt P07384); test: Measurement of inhibitory activity against μ-calpain; type: biochemical; conditions: casein substrate, 30° C., 60 minutes; read-out: enzyme inhibitory activities (μM) μ-calpain
T1 construct: derived from human red blood cells; purchased Cosmo Bio Co., Ltd; host or cells: human red blood cells (tissue-purified)
T1 sequence (P07384 1-714): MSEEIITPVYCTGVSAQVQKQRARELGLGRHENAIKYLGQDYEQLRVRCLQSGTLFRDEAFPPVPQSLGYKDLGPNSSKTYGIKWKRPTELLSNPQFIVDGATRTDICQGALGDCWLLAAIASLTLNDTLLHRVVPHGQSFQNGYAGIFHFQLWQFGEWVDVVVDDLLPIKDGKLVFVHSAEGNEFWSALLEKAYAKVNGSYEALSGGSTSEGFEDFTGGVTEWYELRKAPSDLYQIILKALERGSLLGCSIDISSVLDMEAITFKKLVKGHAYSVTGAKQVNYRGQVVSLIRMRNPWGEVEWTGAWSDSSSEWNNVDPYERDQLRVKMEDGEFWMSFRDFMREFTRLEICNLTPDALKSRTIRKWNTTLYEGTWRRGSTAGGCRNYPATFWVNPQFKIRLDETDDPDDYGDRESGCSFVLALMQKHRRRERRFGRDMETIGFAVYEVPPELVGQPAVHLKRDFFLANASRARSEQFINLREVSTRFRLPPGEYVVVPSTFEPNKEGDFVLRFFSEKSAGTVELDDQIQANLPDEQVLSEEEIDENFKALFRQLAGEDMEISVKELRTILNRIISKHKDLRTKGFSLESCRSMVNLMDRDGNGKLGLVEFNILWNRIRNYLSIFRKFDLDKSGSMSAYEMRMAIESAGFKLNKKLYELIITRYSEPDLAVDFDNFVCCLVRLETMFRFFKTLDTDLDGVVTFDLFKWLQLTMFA
T1 sequence (P04632 1-268 partner): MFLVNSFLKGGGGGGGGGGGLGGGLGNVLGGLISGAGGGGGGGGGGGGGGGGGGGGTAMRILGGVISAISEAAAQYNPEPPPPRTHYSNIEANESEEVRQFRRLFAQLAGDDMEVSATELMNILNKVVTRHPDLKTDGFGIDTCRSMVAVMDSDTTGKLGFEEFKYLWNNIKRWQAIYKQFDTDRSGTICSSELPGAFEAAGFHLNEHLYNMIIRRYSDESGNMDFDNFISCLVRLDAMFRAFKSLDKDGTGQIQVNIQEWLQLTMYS
Experimental: (§1) The inhibitory activity against μ-calpain and m-calpain was assayed according to a published method (Anal. Biochem. 1993, vol. 208, p. 387-392). More specifically, 200 μL of a reaction solution containing 0.5 mg/mL casein, 50 mM Tris-HCl buffer (pH 7.4), 20 mM dithiothreitol and 1.0 nmol μ-calpain (derived from human red blood cells, Cosmo Bio Co., Ltd.) or m-calpain (derived from porcine kidney, Cosmo Bio Co., Ltd.) was added to individual 2.5 μL portions of DMSO solution containing a varying concentration of a test sample in a 96-well plate. Then, 50 μL of 20 mM aqueous calcium chloride was added thereto, and reaction was performed at 30° C. for 60 minutes. 100 μL of the reaction solution was transferred to another 96-well plate, and purified water (50 μL) and 50% aqueous solution (100 μL) of Protein Assay Dye Reagent (available from Bio-Rad Laboratories, Inc.; catalogue No. 500-600) were added thereto. The reaction mixture was allowed to stand at room temperature for 15 minutes, and its absorbance was measured at 595 nm. The absorbance of a reaction mixture prepared in the same manner as mentioned above, except that a DMSO solution containing no sample was used as a control value; and the absorbance of a reaction mixture prepared in the same manner as mentioned above, except that a 1 mM aqueous EDTA solution (50 μL) was used in place of 20 mM aqueous calcium chloride, was used as a blank value. […] Inhibition rate (%){1−(measured value−blank test value)/(control value−blank test value)}×100
The concentrations (IC50) are shown in Table 1 as enzyme (calpain) inhibitory activities (μM).

[3] = target: m-calpain (derived from porcine kidney) (Sus scrofa, UniProt I3LQD3); test: Measurement of inhibitory activity against m-calpain; type: biochemical; conditions: casein substrate, 30° C., 60 minutes; read-out: enzyme inhibitory activities (μM) m-calpain
Experimental: as §1, with “More” for “The inhibitory activity against μ-calpain and m-calpain was assayed according to a published method (Anal. Biochem. 1993, vol. 208, p. 387-392). More”, “The reaction mixture was allowed to stand at room temperature for 15 minutes, and its absorbance was measured at 595 nm.” left out

[4] = tested on: cells with LIS1 gene heterozygous mutation (Lis1+/−); conditions: Lis1+/− cells treated with ALLN, NPL 1; cited from earlier work

Sequence of m-calpain (derived from porcine kidney) (I3LQD3 entry or part of it): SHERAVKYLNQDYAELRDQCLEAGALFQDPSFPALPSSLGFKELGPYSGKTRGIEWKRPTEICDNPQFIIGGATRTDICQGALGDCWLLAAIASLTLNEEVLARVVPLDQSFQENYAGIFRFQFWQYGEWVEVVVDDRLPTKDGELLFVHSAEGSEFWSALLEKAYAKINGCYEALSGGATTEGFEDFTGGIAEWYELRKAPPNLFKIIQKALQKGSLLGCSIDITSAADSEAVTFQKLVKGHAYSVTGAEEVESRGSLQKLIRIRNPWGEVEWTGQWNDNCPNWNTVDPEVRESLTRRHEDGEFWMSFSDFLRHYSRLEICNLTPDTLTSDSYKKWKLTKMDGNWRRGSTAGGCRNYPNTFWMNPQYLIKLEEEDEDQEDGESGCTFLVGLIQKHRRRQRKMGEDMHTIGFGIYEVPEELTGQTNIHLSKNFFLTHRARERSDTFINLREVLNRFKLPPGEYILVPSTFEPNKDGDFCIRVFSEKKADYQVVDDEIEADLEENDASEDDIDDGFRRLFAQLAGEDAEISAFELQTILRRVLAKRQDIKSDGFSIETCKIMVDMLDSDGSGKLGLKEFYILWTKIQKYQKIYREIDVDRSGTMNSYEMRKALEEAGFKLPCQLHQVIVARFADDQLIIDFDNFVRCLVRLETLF
Sequence of m-calpain (derived from porcine kidney) (P04574 whole entry, further chain): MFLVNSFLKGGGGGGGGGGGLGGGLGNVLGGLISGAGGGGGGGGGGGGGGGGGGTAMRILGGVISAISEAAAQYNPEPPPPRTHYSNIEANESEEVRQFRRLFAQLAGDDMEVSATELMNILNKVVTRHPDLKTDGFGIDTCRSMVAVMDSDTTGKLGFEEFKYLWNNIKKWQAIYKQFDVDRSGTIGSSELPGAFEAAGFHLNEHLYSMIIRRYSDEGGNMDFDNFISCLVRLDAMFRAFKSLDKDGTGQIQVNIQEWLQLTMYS

SMILES	IC50 [2]	melting point	IC50 [3]	also measured
CCOC(=O)[C@H]1O[C@@H]1C(=O)N[C@@H](CC(C)C)C(=O)NCCC(C)C [E64d, reference compound]	–	–	–	neurite elongation and cell migration (cytotoxicity) ([1]; 100 μM): the cells were aggregated in the center, many cells were incapable of neurite elongation, little migration was observed compared with the control
COCCOCCOCCOCCOCCOC(=O)N[C@@H](CC(C)C)C(=O)N[C@@H](Cc1ccccc1)C(=O)C(=O)NC1CC1 [compound 20, ((1S)-1-((((1S)-1-Benzyl-2,3-dioxo-3-(cyclopropylamino)propyl)amino)carbonyl)-3-methylbutyl)carbamic acid 14-methoxy-3,6,9,12-tetraoxatetradecanyl ester]	0.42 µM	98.5 to 99.9 °C	0.19 µM	–
CCCCC(C=O)NC(=O)C(CC(C)C)NC(=O)C(CC(C)C)NC(C)=O (stereo not drawn) [ALLN, N-Acetyl-Leu-Leu-Nle-CHO] (Ac-Leu-Leu-[Nle]-aldehyde; configuration not given here)	–	–	–	neurite elongation and cell migration (cytotoxicity) ([1]; 50 μM): the cells were roundly aggregated, neurite elongation was hardly observed, the cells remained accumulated in the center, and migration was hardly observed; LIS1 protein expression [4]: increased LIS1 protein expression; neuronal migration [4]: restored neuronal migration
COCCOCCOCCOC(=O)N[C@@H](CC(C)C)C(=O)N[C@@H](Cc1ccccc1)C(=O)C(=O)NC1CC1 [compound 18, ((1S)-1-((((1S)-1-Benzyl-2,3-dioxo-3-(cyclopropylamino)propyl)amino)carbonyl)-3-methylbutyl)carbamic acid 8-methoxy-3,6-dioxaoctyl ester]	0.19 µM	–	–	–
COCCOCCOCCOCCOC(=O)N[C@@H](CC(C)C)C(=O)N[C@@H](Cc1ccccc1)C(=O)C(=O)NC1CC1 [compound 19, ((1S)-1-((((1S)-1-Benzyl-2,3-dioxo-3-(cyclopropylamino)propyl)amino)carbonyl)-3-methylbutyl)carbamic acid 11-methoxy-3,6,9-trioxaundecanyl ester]	0.22 µM	97.5 to 98.5 °C	0.17 µM	–
COCCOC(=O)N[C@@H](CC(C)C)C(=O)N[C@@H](Cc1ccccc1)C(=O)C(=O)NC1CC1 [compound 4, ((1S)-1-((((1S)-1-Benzyl-2,3-dioxo-3-(cyclopropylamino)propyl)amino)carbonyl)-3-methylbutyl)carbamic acid 2-methoxyethyl ester]	0.11 µM	112.4 to 113.5 °C	–	–
